Data taken from ChEMBL document CHEMBL1137060, “Inactivation of S-adenosylhomocysteine hydrolase with haloethyl and dihalocyclopropyl esters derived from homoadenosine-6'-carboxylic acid” (Bioorg Med Chem Lett, 2004).

Tests used:
[1] = biological target: T1, Adenosylhomocysteinase (Homo sapiens, UniProt P23526); experiment: Inhibition of human placental AdoHcy hydrolase
Target sequence in this assay (P23526 whole entry): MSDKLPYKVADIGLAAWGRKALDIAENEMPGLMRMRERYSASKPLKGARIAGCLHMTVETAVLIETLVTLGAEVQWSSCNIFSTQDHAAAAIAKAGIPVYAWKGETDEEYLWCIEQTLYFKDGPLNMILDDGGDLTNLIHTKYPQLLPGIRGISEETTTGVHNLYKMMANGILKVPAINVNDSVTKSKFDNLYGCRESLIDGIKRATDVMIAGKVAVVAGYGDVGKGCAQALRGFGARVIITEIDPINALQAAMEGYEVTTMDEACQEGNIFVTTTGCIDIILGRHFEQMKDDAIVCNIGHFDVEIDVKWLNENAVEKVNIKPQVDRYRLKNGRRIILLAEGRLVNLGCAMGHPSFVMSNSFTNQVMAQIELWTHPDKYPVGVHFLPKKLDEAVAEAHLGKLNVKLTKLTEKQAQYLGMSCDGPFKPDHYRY

[2] = biological target: T1, Adenosylhomocysteinase; experiment: Inactivation of human placental AdoHcy hydrolase
Target sequence in this assay (P23526 2-432 limits assumed): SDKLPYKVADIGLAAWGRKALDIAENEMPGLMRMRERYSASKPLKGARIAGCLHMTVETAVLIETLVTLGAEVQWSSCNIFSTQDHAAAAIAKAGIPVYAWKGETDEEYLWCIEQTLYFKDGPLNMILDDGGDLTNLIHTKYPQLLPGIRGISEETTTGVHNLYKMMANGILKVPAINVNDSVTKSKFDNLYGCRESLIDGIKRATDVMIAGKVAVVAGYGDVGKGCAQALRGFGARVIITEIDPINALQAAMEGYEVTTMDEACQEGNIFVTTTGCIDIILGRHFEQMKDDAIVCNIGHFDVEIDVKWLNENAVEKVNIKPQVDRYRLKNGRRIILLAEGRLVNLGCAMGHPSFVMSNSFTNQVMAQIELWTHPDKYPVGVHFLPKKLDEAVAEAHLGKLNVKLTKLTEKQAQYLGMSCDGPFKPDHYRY

Ki [1] [µM]	K inact [2] [min⁻¹]	Compound
17	0.008	Nc1ncnc2c1ncn2C1O[C@H](CC(=O)OC2CC2(F)F)C(O)[C@H]1O (single isomer, unassigned)
302	0.43	Nc1ncnc2c1ncn2C1O[C@H](CC(=O)OCCCl)C(O)[C@H]1O (single isomer, unassigned)
750	0.09	Nc1ncnc2c1ncn2C1O[C@H](CC(=O)OC2CC2(Cl)Cl)C(O)[C@H]1O (single isomer, unassigned)
75	0.19	Nc1ncnc2c1ncn2C1O[C@H](CC(=O)OCCF)C(O)[C@H]1O (single isomer, unassigned)
